The values below come from US11891623B2, “Generation of neural stem cells from human trophoblast stem cells” (Accelerated BioSciences Corp., priority 2010, dated 2024).

A value given as a limit tells only on which side of the number the result lay.

For one experiment, the system named is CaMKII. The experiment is described as follows: CaMKII inhibitor effect on eIF4B expression (Western blots). Type of experiment: cell-based, human. As to conditions: KN93 1 μM, 2 hr. How it is done: FIGS. 21a-21n illustrate activation of Gαq/11 signaling pathway: (21a) illustrates expressions of Gαq/11 pathway-related components after RA treatment (10 μM) over time by Western blots; (21b) illustrates real-time live cell imaging microscopy (Cell-R system, Olympus, Tokyo) in hTS cells which were cultured in the calcium-free medium and pre-loaded with Fluo4 (1 μM) in BSS buffer 20 min before RA treatment. (a) The RA-induced depletion of intracellular calcium was rescued by adding CaCl2 (2 mM) with a SOCE pattern. […] (c) After depletion of ER calcium, KCl (60 mM) enabled to activate L-type calcium channels.
The transient CaMKII bound and activated eukaryotic initiation factor 4B (eIF4B) (FIG. 21c) to initiate mRNA translation machinery via a cap-independent mechanism.

Experiment [1] relates to hTS cells. The experiment is described as follows: RA effect on Nanog, Oct4, Sox2, Cdx2 expression in hTS cells (flow cytometry).
For experiment [2], the system named is hTS cells. Description: RA-induced differentiation of hTS cells. In kind it is cell-based, human. How it is done: In another embodiment, a similar ratio in distribution of mixed RA-induced neural progenitors results over 1 to 5-day RA-induction periods. In another embodiment, the cell differentiation becomes undefined trophoblast giant cells over a 7-day RA treatment.
Cells were cultured in conditioned α-MEM containing 20% FBS, 1% penicillin-streptomycin, and 10 μg/ml bFGF (CytoLab Ltd, Rehovot, Israel) at 37° C. in 5% CO2. The medium was refreshed every 3 days in general. After 5 passages of culture, cell differentiations into a variety of specific cell phenotypes were performed by various strategies as shown in the Table in FIG. 12. For osteogenic differentiation, cytochemical mineral matrix was analyzed using an Alizarin red S assay (Sigma-Aldrich, St. Louis, MO) to detect the calcium mineral content. To identify the calcium deposits, cells were fixed and incubated with 2% silver nitrate solution (w/v) for 10 min in dark followed by thorough wash with de-ionized water and exposed under bright light for 15 min. Cells were treated with […] to detect alkaline phosphatase activity using a commercial kit (Sigma-Aldrich, St. Louis, MO). Chondrogenic differentiation was confirmed using Alcian blue staining (Sigma-Aldrich, St. Louis, MO) at an acidic pH level. […]

For experiment [3], the system named is intracellular calcium in hTS cells. The experiment is described as follows: Real-time live cell calcium imaging in RA-treated hTS cells. Type of experiment: cell-based, human.
Description: FIGS. 21a-21n illustrate activation of Gαq/11 signaling pathway: (21a) illustrates expressions of Gαq/11 pathway-related components after RA treatment (10 μM) over time by Western blots; (21b) illustrates real-time live cell imaging microscopy (Cell-R system, Olympus, Tokyo) in hTS cells which were cultured in the calcium-free medium and pre-loaded with Fluo4 (1 μM) in BSS buffer 20 min before RA treatment. […] (c) After depletion of ER calcium, KCl (60 mM) enabled to activate L-type calcium channels.
Experiment [4] concerns hTS cells. The experiment is described as follows: RA-induced protein/mRNA expression over time in hTS cells (Western blots, RT-PCR, flow cytometry). In kind it is cell-based, human. How it is done: For RT-PCR, total RNA from 10^5-10^6 cells was extracted by using TRIZOL reagent (Invitrogen) and mRNA expression by using a Ready-To-Go RT-PCR Beads kit (Amersham Biosciences, Buckinghamshire, UK). Briefly, the reaction products were resolved on 1.5% agarose gel and visualized with ethidium bromide. β-actin or β-2 microglobulin was used as a positive control. All experiments were performed in triplicate. For qPCR, gene expression was measured with the iQ5 Real-Time PCR Detection System (Bio-Rad Laboratories) and analyzed with Bio-Rad iQ5 Optical System Software, version 2.0 (Bio-Rad Laboratories). Relative mRNA levels were calculated using the comparative Ct method (Bio-Rad, instruction manual) and presented as a ratio to biological controls. All primer pairs were confirmed to approximately double the amount of product within one cycle and to yield a single product of the predicted size.
Cells were seeded into 10 cm dish with the serum-free medium for overnight and treated with or without RA (10 μM) for various time intervals as indicated. After stimulation, cells were washed twice with ice-cold PBS and lysed by RIPA lysis buffer (Minipore). Protein concentration was determined by BCA protein assay kit (Thermo). Equal amounts of protein (30 μg) were resolved by 8% SDS-PAGE, transferred onto PVDF membrane and blocked with 5% non-fat dry milk for 1 h at room temperature. After blocking, the membrane was incubated with primary antibodies for 4 h at 4° C. Cells were washed three times with PBST and then incubated with HRP conjugated secondary antibodies for 1 h at room temperature. After washing six times with PBST buffer, the membrane was incubated with a chemiluminescent substrate (GE Healthcare) for 1 min. Specific bands were visualized using an enhanced chemiluminescence kit (ECL) (Amersham).
hTS cells obtained from the preimplantation embryos in women with early tubal ectopic pregnancy were described previously. Adherent hTS cells were cultured in conditioned α-MEM containing 10 μg/ml bFGF (JRH, Biosciences, San Jose, CA), 10% FBS, and 1% penicillin-streptomycin at 37° C. in 5% CO2. Cells were treated by RA (10 μM) for various time intervals depending on the experiments.

The test system of experiment [5] is protein kinase C (PKC) pathway. As to conditions: cited from earlier work.
In a further experiment the test system is Huh-7 cells. The experiment is described as follows: BBP-induced signaling in Huh-7 cells (RT-PCR, Western blot, immunofluorescence). Type of experiment: cell-based, human. How it is done:
Huh-7 cells (3×10^5) were seeded into a 6-well dish and incubated for 24 h. Cells cultured serum-free medium overnight were treated with BBP (1 μM) for various time intervals. After BBP stimulation, cells were washed twice with PBS. Total RNAs were extracted by TRIzol methods (Invitrogen). RNA (2 μg) was used to synthesize cDNA by Reverse Transcription System (Promega). The c-DNAs were amplified by the specific primers. The primer pairs were designed as follows: AhR, forward 5′-TACTCTGCCGCCCAAACTGG-3′ (SEQ ID NO:49), reverse 5′-GCTCTGCAACCTCCGATTCC-3′ (SEQ ID NO:50); β-actin, forward 5′-CTC GCT GTC CAC CTT CCA-3′ (SEQ ID NO:51), reverse 5′-GCT GTC ACC TTC ACC GTTC-3′ (SEQ ID NO:52). PCR conditions were set at 95° C. for 5 min and 95° C. for 30 sec, 54° C. for 30 sec, 72° C. for 1 min followed by 72° C. for 10 min (36 cycles). The products were separated by 2% agarose gels and visualized by ethidium bromide.
Huh-7 cells (1×10^6) were seeded into 10 cm dish and cultured overnight. The culture medium was changed to serum-free medium for another night. Cells were treated with BBP (1 μM) for various time intervals. […] Cells were then washed twice with ice-cold PBS and lysed by RIPA lysis buffer (Minipore). Protein concentration was measured by BCA protein assay kit (Thermo). Equal amounts of protein (30 μg protein) were resolved by 8% SDS-PAGE, transferred onto PVDF membrane, and blocked with 5% non-fat dry milk for 1 h at room temperature. After blocking, the membrane was incubated with the primary antibodies including AhR (1:1000), Cox-2 (1:1000), Gαq/11 (1:100), Gβ (1:100), β-actin (1:5000), p44/42 MAP kinase (1:1000) or phospho-p44/42 MAP kinase (1:1000) overnight at 4° C. Cells were washed three times with PBST and then incubated with HRP conjugated secondary antibodies for 1 h at room temperature. After washing, the blot was visualized using an enhanced chemiluminescence kit (ECL) (Amersham).
Cells with or without transfection by AhR siRNA were cultured and treated with BBP (1 μM) for 5 and 15 min each. After treatment with primary and secondary antibodies for AhR and Gαq/11, cells were subjected to confocal immunofluorescence microscopy to analyze the dynamic movement in the cell compartments.

In experiment [6] the test system is intracellular calcium in Huh-7 cells. Description: Real-time live cell calcium imaging in BBP-treated Huh-7 cells. Type of experiment: cell-based, human. As to the method:
Cells were pre-treated with Fluo-4 (1 μM), a Ca^2+-specific dye, in BSS buffer at 37° C. for 20 min before treatment with BBP (1 μM). Measurements of relative intracellular calcium intensity were performed by real-time cell imaging microscopy and analyzed by Cell-R software system (Olympus).

The subject of a further experiment is AhR. The experiment is described as follows: TIRF microscopy of GFP-tagged AhR at the plasma membrane in Huh-7 cells. In kind it is cell-based, human. As to conditions: BBP 1 μM. From the text: Immunofluorescence studies are considered important for the dynamic study of signal transduction through their ability to capture snapshots of molecular changes in the cell. Human hepatic Huh-7 cancer cells were pre-transfected with pGFP-C1-AhR by using LT1 transfection reagent (Minis Bio LLC, WI) and total internal reflection fluorescence microscopy to selectively observe the molecular events in the cytoplasmic region immediately beneath the plasma membrane. When BBP was introduced, a rapid but transient recruitment and translocation of the GFP-tagged AhR occurred at the subcellular membrane regions, showing a fast elevation and peaking in 115 seconds followed by a gradual decrease in AhR that occurred over a few minutes (FIG. 14a). This fast, dynamic movement of the memAhR at the subcellular membrane is reminiscent of the notion of soft-wired signal transduction.
Huh-7 cells were pre-transfected with pGFP-C1-AhR (a gift of H. Li) by using LT1 transfection reagent (Minis Bio LLC, Madison, WI) for 24 h. For TIRF microscopy, cells were cultured in serum-free medium on cover-slip overnight followed by stimulation by BBP (1 μM, Sigma). The dynamic activities of GFP-tagged AhR at the cell membrane were observed and analyzed by using Zeiss TIRF microscope with Axio Vision Rel. 4.8 software.

The next experiment has as its system IP3R. As to conditions: pretreatment with 2-APB.

On to `COc1ccc(S(=O)(=O)N(CCO)c2ccccc2CN(C)C/C=C/c2ccc(Cl)cc2)cc1` [KN93], for which the eIF4B expression entry with CaMKII is “inhibited”.
On to `CC1=C(/C=C/C(C)=C/C=C/C(C)=C/C(=O)O)C(C)(C)CCC1` [RA, all-trans retinoic acid], for which the “effect on expression of Nanog, Oct4, Sox2, Cdx2” value in the experiment on hTS cells [1] (RA one day) is “promoted expressions of Nanog, Oct4 and Sox2 but not Cdx2”. This molecule also showed a Nanog expression in the experiment with hTS cells [1] (RA-induced cells (10 μM, 1 day)) of 26.9%. For the same molecule, in the experiment with hTS cells [2] (RA 10 μM, 1 to 7 days), the “differentiation of hTS cells into neural cell phenotypes” value is “induces hTS cells differentiation into a variety of phenotypical neural cells”. For the same molecule, in the experiment with hTS cells [2] (treatment with all-trans retinoic acid), the giant cell formation result is listed as “resulted in a formation of giant cells”. In addition, the “intracellular Ca2+ response” value in [3] (RA, calcium-free medium, Fluo4) is given as “transiently intracellular Ca^2+ release”. In the experiment with hTS cells [4] (RA 10 μM, RT-PCR), the “time of peak c-Src mRNA expression” value came out at 15 min; the “time of transient elevation of RXRα mRNA and RARβ mRNA” value is recorded as 15 min. Further, the “time of production of c-Src protein” value in the experiment on hTS cells [4] (RA 10 μM, Western blot) stood at 1 h. Moreover, the “Wnt2B and FRAT1 expression” value in the experiment with hTS cells [4] (RA 4 hr and 24 hr incubation, Western blots) is reported as “significantly upregulated”. Moreover, the GSK3β activity state result in the experiment on hTS cells [4] (RA 4 hr vs overnight, flow cytometry) is “initially activated in 4 hr but transited into inhibitory later”. Also, the “Fzd6 mRNA expression” value in the experiment with hTS cells [4] (RA, RT-PCR) is “overexpression”. Also, in the experiment on hTS cells [4] (RA, Western blot), the calcineurin production result is reported as “induced production”, the “time of CaMKII activation” value lay in the range of 1 to 2 h, the “time of HDAC6 elevation” value was determined as 2 h and the “time of Nanog production” value was determined as 4 h. In addition, in the experiment on hTS cells [4] (RA, Western blots), the “time of RARβ production” value was found to be 4 h; the “time of c-Src expression” value turned out to be 5 min; the “time of production of Gαq/11 and Gβ” value came to 30 min; the “time of transient Akt3 activation” value was determined as 1 h. Besides, the β-catenin activation result in the experiment with hTS cells [4] (RA, between 30 min and 24 hr, Western blots) is “significantly activated”. Also, in the experiment with hTS cells [4] (RA, disappeared after 24 hr), the “time of mTOR phosphorylation at serine 2448” value was 4 h. Further, the “time of peak eIF4B production” value in the experiment with hTS cells [4] (RA, fading away at 24 hr) was determined as 4 h. In addition, the “time of translocation of PKC-γ” value in experiment [5] is on record as at most 5 min. Besides, the “increase in intracellular diacylglycerol (DG)” value in experiment [5] (transient, at 2 min) was 1.3 fold.
Take `CCCCOC(=O)c1ccccc1C(=O)OCc1ccccc1` [BBP, Benzyl butyl phthalate]: the “time of COX-2 production” value with Huh-7 cells (BBP 1 μM) turned out to be 15 min. Also, in the experiment with Huh-7 cells (BBP 1 μM, RT-PCR), the “time of induction of AhR mRNA expression” value was 5 min and the “time of peak AhR mRNA expression” value amounted to 15 min. For the same molecule, in the experiment with Huh-7 cells (BBP 1 μM, Western blot), the “time of Gαq/11 and Gβ production” value came out at 30 min; the “time of elevation in AhR production” value was determined as 15 min. Further, the ARNT expression result with Huh-7 cells (BBP 1 μM, overnight) is “significantly inhibited”. Moreover, the “time of ERK1/2 phosphorylation” value in the experiment on Huh-7 cells (BBP 1 μM, dephosphorylated at 30 min) is 15 min. The intracellular calcium response result in experiment [6] (BBP 1 μM, calcium free medium) is “release of intracellular calcium”. Moreover, the “time to peak of GFP-tagged AhR recruitment at subcellular membrane” value in the experiment with AhR worked out at 115 s.
`NCCOB(c1ccccc1)c1ccccc1` [2-APB, 2-aminoethoxydiphenyl borate]: in the experiment with Huh-7 cells, the “BBP-induced COX-2 production” value is recorded as “blocked”. Moreover, in [6] (2-APB at various concentrations), the “BBP-elicited intracellular calcium levels” value is “dose-dependently inhibit”. Also, the “RA-induced ER calcium release” value in experiment [3] (2-APB, dose-dependent) is listed as “inhibited”. For the same molecule, in the experiment with IP3R, the “Calcineurin, NFAT1, and MEF2A expression” value is “inhibited”.
